Data published in patent publication US11963961B2, “Combination therapy comprising an ACC inhibitor” (Gilead Sciences, Inc., priority 2017, dated 2024).

Experiments:
[1] = test system: non-cirrhotic subjects with NASH; assay: Phase 2 trial of Compound 1 in NASH: standard lipid tests and NMR LipoProfile lipoproteins in fasting serum; format: in vivo, human; settings: for HDL-P (total HDL particles), median / HDL-C, median / VLDL-P (total VLDL particles), median / LDL-C, median / TG, median / TC, median / LDL-P (total LDL particles), median: Compound 1 20 mg daily; for HDL-P (total HDL particles), median: BL 30; for HDL-C, median: BL 42; for VLDL-P (total VLDL particles), median: BL 53; for LDL-C, median: BL 99; for TG, median: BL 160; for TC, median: BL 179; for LDL-P (total LDL particles), median: BL 1397
Procedure: (§1) Methods: In this double-blind, placebo-controlled trial, 126 non-cirrhotic subjects with NASH diagnosed noninvasively by MRI proton density fat fraction (PDFF) ≥8% and liver stiffness ≥2.5 kPa by MR elastography (MRE), or historical liver biopsy consistent with NASH and stage 1 to 3 fibrosis, were randomized 2:2:1 to receive Compound 1 20 mg, Compound 1 5 mg, or placebo orally QD for 12 weeks (W12). Centrally-read MRI-PDFF and MRE, and FibroScan and serum markers of fibrosis were measured at baseline and W12. In some subjects, liver stiffness and hepatic fat content by Controlled Attenuation Parameter (CAP) were assessed using transient elastography (FibroScan®; Echosens, Paris, France) at baseline (i.e. week 0) and week 12.
In addition to standard lipid tests (serum triglycerides (“TG”), total cholesterol (“TC”), low density lipoprotein cholesterol (“LDL-C”), and high density lipoprotein cholesterol (“HDL-C”), lipoproteins also were measured by nuclear magnetic resonance spectroscopy (NMR LipoProfile®, LabCorp) in fasting serum samples at baseline (“BL”), week 1 (W1), week 4 (W4), and W12. Changes from BL in Compound 1-treated subjects were evaluated using Wilcoxon sign-rank tests and comparisons vs placebo using Wilcoxon rank-sum tests (all with Bonferroni adjustment).

[2] = test system: non-cirrhotic subjects with NASH; assay: Phase 2 trial of Compound 1 in NASH: acylcarnitine species by UHPLC-MS; format: in vivo, human
Procedure: as §1, with “([…]).” for “(W12).”, “[…].” for “W12.”, “12. Acylcarnitine species measurements were performed with Ultrahigh Performance Liquid Chromatography-Tandem Mass Spectroscopy (UHPLC-MS; Waters Acquity UHPLC, Waters Corporation, Milford, MA USA) and Hybrid Quadrupole-Orbitrap mass spectometer (Q-Exactive Thermo Fischer Scientific, Waltham, MA, USA) platforms in electrospray ionisation-positive and -negative modes as known.” for “12.”

[3] = Compound 1 5 mg, PDFF Nonresponders
[4] = Compound 1 5 mg, PDFF Responders
[5] = Compound 1 20 mg, PDFF Nonresponders
[6] = Compound 1 20 mg, PDFF Responders

COc1ccccc1[C@H](Cn1c(=O)n(C(C)(C)C(=O)O)c(=O)c2c(C)c(-c3ncco3)sc21)OC1CCOCC1 [Compound 1, (R)-2-(1-(2-(2-methoxyphenyl)-2-((tetrahydro-2H-pyran-4-yl)oxy)ethyl)-5-methyl-6-(oxazol-2-yl)-2,4-dioxo-1,2-dihydrothieno[2,3-d]pyrimidin-3(4H)-yl)-2-methylpropanoic acid]
Asymptomatic Grade 3 or 4 TG elevations (>500 mg/dL), number of subjects ([1]; Compound 1 5 mg): 9 subjects | Median relative change in triglycerides (TG) ([1]; Compound 1 5 mg, W12): +13% | Asymptomatic Grade 3 or 4 TG elevations (>500 mg/dL), number of subjects ([1]; Compound 1 20 mg): 7 subjects | HDL-P (total HDL particles), median ([1]; W1): 30 µmol/L | HDL-C, median ([1]; W1): 39 mg/dL | VLDL-P (total VLDL particles), median ([1]; W1): 72 nmol/L | LDL-C, median ([1]; W1): 102 mg/dL | TG, median ([1]; W1): 191 mg/dL | TC, median ([1]; W1): 192 mg/dL | LDL-P (total LDL particles), median ([1]; W1): 1260 nM | HDL-P (total HDL particles), median ([1]; W4): 30 µmol/L | HDL-C, median ([1]; W4): 39 mg/dL | VLDL-P (total VLDL particles), median ([1]; W4): 52 nmol/L | LDL-C, median ([1]; W4): 96 mg/dL | TG, median ([1]; W4): 188 mg/dL | TC, median ([1]; W4): 184 mg/dL | LDL-P (total LDL particles), median ([1]; W4): 1360 nM | HDL-P (total HDL particles), median ([1]; W12): 30 µmol/L | HDL-C, median ([1]; W12): 42 mg/dL | VLDL-P (total VLDL particles), median ([1]; W12): 52 nmol/L | LDL-C, median ([1]; W12): 99 mg/dL | TG, median ([1]; W12): 177 mg/dL | TC, median ([1]; W12): 182 mg/dL | LDL-P (total LDL particles), median ([1]; W12): 1230 nM | Changes in glucose, insulin, or HbA1c compared to placebo ([1]; Compound 1 20 mg or 5 mg): no significant changes | Median relative change in triglycerides (TG) ([1]; Compound 1 20 mg, W12): +11% | Changes from baseline in HDL-C, TC, and LDL-C ([1]; Compound 1-treated subjects, W12): not significant | Median TG increase ([1]; Compound 1-treated subjects, W12, IQR (−6, 72), p=0.14 vs placebo): 14 mg/dL | Changes in total HDL or total LDL particles ([1]; subjects on Compound 1): No significant changes | Time course of TG elevations ([1]; subjects on Compound 1): peaked at W1 and declined thereafter | Acylcarnitine species compared according to PDFF response ([2]; Compound 1 5 mg): minimal changes | 3-hydroxybutyrylcarnitine (1), median % change from baseline [2, 3]: −4.08% | 5-dodecenoylcarnitine (C12:1), median % change from baseline [2, 3]: 15.43% | laurylcarnitine (C12), median % change from baseline [2, 3]: 15.23% | linolenoylcarnitine (C18:3), median % change from baseline [2, 3]: −23.55% | myristoleoylcarnitine (C14:1), median % change from baseline [2, 3]: 25.74% | myristoylcarnitine (C14), median % change from baseline [2, 3]: 12.05% | octadecenedioylcarnitine (C18:1-DC), median % change from baseline [2, 3]: 0% | palmitoleoylcarnitine (C16:1), median % change from baseline [2, 3]: 18.13% | 3-hydroxybutyrylcarnitine (1), median % change from baseline [2, 4]: −18.06% | 5-dodecenoylcarnitine (C12:1), median % change from baseline [2, 4]: 2.08% | laurylcarnitine (C12), median % change from baseline [2, 4]: 1.99% | linolenoylcarnitine (C18:3), median % change from baseline [2, 4]: 6.49% | myristoleoylcarnitine (C14:1), median % change from baseline [2, 4]: −4.71% | myristoylcarnitine (C14), median % change from baseline [2, 4]: −7.50% | octadecenedioylcarnitine (C18:1-DC), median % change from baseline [2, 4]: 33.24% | palmitoleoylcarnitine (C16:1), median % change from baseline [2, 4]: −0.06% | 3-hydroxybutyrylcarnitine (1), median % change from baseline [2, 5]: 34.27% | 5-dodecenoylcarnitine (C12:1), median % change from baseline [2, 5]: 58.85% | laurylcarnitine (C12), median % change from baseline [2, 5]: 36.72% | linolenoylcarnitine (C18:3), median % change from baseline [2, 5]: 20.43% | myristoleoylcarnitine (C14:1), median % change from baseline [2, 5]: 22.42% | myristoylcarnitine (C14), median % change from baseline [2, 5]: 23.92% | octadecenedioylcarnitine (C18:1-DC), median % change from baseline [2, 5]: 36.38% | palmitoleoylcarnitine (C16:1), median % change from baseline [2, 5]: 31.63% | 3-hydroxybutyrylcarnitine (1), median % change from baseline [2, 6]: −13.99% | 5-dodecenoylcarnitine (C12:1), median % change from baseline [2, 6]: −12.39% | laurylcarnitine (C12), median % change from baseline [2, 6]: −3.23% | linolenoylcarnitine (C18:3), median % change from baseline [2, 6]: −17.84% | myristoleoylcarnitine (C14:1), median % change from baseline [2, 6]: −7.22% | myristoylcarnitine (C14), median % change from baseline [2, 6]: −19.99% | octadecenedioylcarnitine (C18:1-DC), median % change from baseline [2, 6]: −11.01% | palmitoleoylcarnitine (C16:1), median % change from baseline [2, 6]: −9.82% | Multiple long and medium-chain acylcarnitine species, PDFF response versus no PDFF response ([2]; Compound 1 20 mg, before administration of the next daily dose): significantly reduced
